From US20070299087A1, “New Compounds 319” (AstraZeneca AB, priority 2006, published 2007)
Structures can show the parent of a compound that is named as a salt.

Biological target: T1, human β-Secretase (sBACE-Fc) (Homo sapiens, UniProt P56817)
T1 construct: The soluble part of the human β-Secretase (AA 1-AA 460) was cloned; Fc domain of IgG1 (C); made in house
Assay: TR-FRET assay (β-secretase enzyme, substrate (Europium)[…](Qsy7))
Format: biochemical
Procedure: The enzyme used in the IGEN Cleavage-, Fluorescent-, TR-FRET- and BiaCore assays is described as follows:
The soluble part of the human β-Secretase (AA 1-AA 460) was cloned into the ASP2-Fc10-1-IRES-GFP-neoK mammalian expression vector. The gene was fused to the Fc domain of IgG1 (affinity tag) and stably cloned into HEK 293 cells. Purified sBACE-Fc is stored in Tris buffer, pH 9.2 and has a purity of 95%.
Enzyme was diluted to 6 μg/mL and the substrate (Europium)[…](Qsy7) to 200 nM in reaction buffer (NaAcetate, chaps, triton x-100, EDTA pH 4.5). Compounds were diluted to the desired concentration in dimethyl sulfoxide (final dimethyl sulfoxide concentration in assay is 5%). The assay was done in a Costar 384 well round bottom, low volume, non-binding surface plate (Corning #3676). Enzyme (9 μL) and 1 μL of compound in dimethyl sulfoxide was added to the plate, mixed and pre-incubated for 10 min. Substrate (10 μL) was added and the reaction proceeded in the dark for 15 min at RT. The reaction was stopped with the addition of 7 μL NaAcetate, pH 9. The fluorescence of the product was measured on a Victor II plate reader with an excitation wavelength of 340 nm and an emission wavelength of 615 nm. […] The dimethyl sulfoxide control defined the 100% activity level and 0% activity was defined by exclusion of the enzyme (using reaction buffer instead).

T1 sequence (P56817 22-460): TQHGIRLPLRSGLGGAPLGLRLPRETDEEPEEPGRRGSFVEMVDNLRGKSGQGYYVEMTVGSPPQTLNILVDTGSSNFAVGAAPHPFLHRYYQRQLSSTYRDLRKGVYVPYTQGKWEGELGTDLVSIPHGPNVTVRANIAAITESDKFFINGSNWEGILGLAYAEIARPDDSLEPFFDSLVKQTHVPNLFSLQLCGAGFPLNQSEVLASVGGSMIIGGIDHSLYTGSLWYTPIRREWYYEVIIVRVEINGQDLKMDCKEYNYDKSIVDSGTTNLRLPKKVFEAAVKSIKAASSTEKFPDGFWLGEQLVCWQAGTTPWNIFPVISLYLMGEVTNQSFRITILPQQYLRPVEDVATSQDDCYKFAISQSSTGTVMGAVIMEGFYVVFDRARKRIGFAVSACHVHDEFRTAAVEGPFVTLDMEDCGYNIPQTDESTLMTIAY

SMILES	IC50 [nM]
N#Cc1cccc(-c2cccc(C3(c4ccncc4)N=C(N)N4CCCN=C43)c2)c1 (stereo not shown) [Example 13, 3′-(6-Amino-8-pyridin-4-yl-2,3,4,8-tetrahydroimidazo[1,5-a]pyrimidin-8-yl)-biphenyl-3-carbonitrile hydrochloride]	353
COc1cccc(-c2cccc(C3(c4ccncc4)N=C(N)N4CCCN=C43)c2)c1 (stereo not shown) [Example 14, 8-(3′-Methoxybiphenyl-3-yl)-8-pyridin-4-yl-2,3,4,8-tetrahydroimidazo[1,5-a]pyrimidin-6-amine 0.25 acetate]	72
COc1cncc(-c2cccc(C3(c4ccncc4)N=C(N)N4CCCN=C43)c2)c1 (stereo not shown) [Example 15, 8-[3-(5-Methoxypyridin-3-yl)phenyl]-8-pyridin-4-yl-2,3,4,8-tetrahydroimidazo[1,5-a]pyrimidin-6-amine 0.25 acetate]	117
NC1=NC(c2ccncc2)(c2cccc(-c3cccc(Cl)c3)c2)C2=NCCCN12 (stereo not shown) [Example 16, 8-(3′-Chlorobiphenyl-3-yl)-8-pyridin-4-yl-2,3,4,8-tetrahydroimidazo[1,5-a]pyrimidin-6-amine 0.25 acetate]	53
NC1=NC(c2ccncc2)(c2cccc(-c3cccnc3F)c2)C2=NCCCN12 (stereo not shown) [Example 17, 8-[3-(2-Fluoropyridin-3-yl)phenyl]-8-pyridin-4-yl-2,3,4,8-tetrahydroimidazo[1,5-a]pyrimidin-6-amine 0.25 acetate]	150
COc1ccc(F)c(-c2cccc(C3(c4ccncc4)N=C(N)N4CCCN=C43)c2)c1 (stereo not shown) [Example 19, 8-(2′-Fluoro-5′-methoxybiphenyl-3-yl)-8-pyridin-4-yl-2,3,4,8-tetrahydroimidazo[1,5-a]pyrimidin-6-amine 0.25 acetate]	74
N#Cc1ccc(F)c(-c2cccc(C3(c4ccncc4)N=C(N)N4CCCN=C43)c2)c1 (stereo not shown) [Example 20, 3′-(6-amino-8-pyridin-4-yl-2,3,4,8-tetrahydroimidazo[1,5-a]pyrimidin-8-yl)-6-fluorobiphenyl-3-carbonitrile 0.25 acetate]	396
N#Cc1cc(-c2cccc(C3(c4ccncc4)N=C(N)N4CCCN=C43)c2)ccc1F (stereo not shown) [Example 22, 3′-(6-amino-8-pyridin-4-yl-2,3,4,8-tetrahydroimidazo[1,5-a]pyrimidin-8-yl)-4-fluorobiphenyl-3-carbonitrile 0.25 acetate]	418
NC1=NC(c2ccncc2)(c2cccc(-c3cccc(Cl)c3F)c2)C2=NCCCN12 (stereo not shown) [Example 23, 8-(3′-Chloro-2′-fluorobiphenyl-3-yl)-8-pyridin-4-yl-2,3,4,8-tetrahydroimidazo[1,5-a]pyrimidin-6-amine 0.25 acetate]	99
NC1=NC(c2ccncc2)(c2cccc(-c3cccc(C(F)(F)F)c3)c2)C2=NCCCN12 (stereo not shown) [Example 24, 8-Pyridin-4-yl-8-[3′-(trifluoromethyl)biphenyl-3-yl]-2,3,4,8-tetrahydroimidazo[1,5-a]pyrimidin-6-amine 0.25 acetate]	390
CS(=O)(=O)c1cccc(-c2cccc(C3(c4ccncc4)N=C(N)N4CCCN=C43)c2)c1 (stereo not shown) [Example 25, 8-[3′-(Methylsulfonyl)biphenyl-3-yl]-8-pyridin-4-yl-2,3,4,8-tetrahydroimidazo[1,5-a]pyrimidin-6-amine 0.25 acetate]	5080
NC1=NC(c2ccncc2)(c2cccc(-c3cc(Cl)cc(Cl)c3)c2)C2=NCCCN12 (stereo not shown) [Example 26, 8-(3′,5′-Dichlorobiphenyl-3-yl)-8-pyridin-4-yl)-2,3,4,8-tetrahydroimidazo[1,5-a]pyrimidin-6-amine 0.25 acetate]	25
COc1cc(Cl)cc(-c2cccc(C3(c4ccncc4)N=C(N)N4CCCN=C43)c2)c1 (stereo not shown) [Example 27, 8-(3′-Chloro-5′-methoxybiphenyl-3-yl)-8-pyridin-4-yl-2,3,4,8-tetrahydroimidazo[1,5-a]pyrimidin-6-amine 0.25 acetate]	66
NC1=NC(c2ccncc2)(c2cccc(-c3cccc(Cl)c3Cl)c2)C2=NCCCN12 (stereo not shown) [Example 28, 8-(2′,3′-Dichlorobiphenyl-3-yl)-8-pyridin-4-yl-2,3,4,8-tetrahydroimidazo[1,5-a]pyrimidin-6-amine 0.25 acetate]	5070
NC1=NC(c2ccncc2)(c2cccc(-c3cc(Cl)cnc3F)c2)C2=NCCCN12 (stereo not shown) [Example 29, 8-[3-(5-Chloro-2-fluoropyridin-3-yl)phenyl]-8-pyridin-4-yl-2,3,4,8-tetrahydroimidazo[1,5-a]pyrimidin-6-amine 0.25 acetate]	87
CCOc1cccc(-c2cccc(C3(c4ccncc4)N=C(N)N4CCCN=C43)c2)c1 (stereo not shown) [Example 30, 8-(3′-Ethoxybiphenyl-3-yl)-8-pyridin-4-yl-2,3,4,8-tetrahydroimidazo[1,5-a]pyrimidin-6-amine 0.25 acetate]	328

SMILES	IC50 [nM]
NC1=NC(c2ccncc2)(c2cccc(-c3cc(Cl)ccc3F)c2)C2=NCCCN12 (stereo not shown) [Example 31, 8-(5′-Chloro-2′-fluorobiphenyl-3-yl)-8-pyridin-4-yl-2,3,4,8-tetrahydroimidazo[1,5-a]pyrimidin-6-amine 0.25 acetate]	79
COc1cc(-c2cccc(C3(c4ccncc4)N=C(N)N4CCCN=C43)c2)ccc1F (stereo not shown) [Example 32, 8-(4′-Fluoro-3′-methoxybiphenyl-3-yl)-8-pyridin-4-yl-2,3,4,8-tetrahydroimidazo[1,5-a]pyrimidin-6-amine 0.25 acetate]	515
NC1=NC(c2ccncc2)(c2cccc(-c3cncc(F)c3)c2)C2=NCCCN12 (stereo not shown) [Example 34, 8-[3-(5-Fluoropyridin-3-yl)phenyl]-8-pyridin-4-yl-2,3,4,8-tetrahydroimidazo[1,5-a]pyrimidin-6-amine 0.25 acetate]	186
COc1cc(OS(C)(=O)=O)cc(-c2cccc(C3(c4ccncc4)N=C(N)N4CCCN=C43)c2)c1 (stereo not shown) [Example 35, 3′-(6-Amino-8-pyridin-4-yl-2,3,4,8-tetrahydroimidazo[1,5-a]pyrimidin-8-yl)-5-methoxybiphenyl-3-yl methanesulfonate 0.25 acetate]	57
NC1=NC(c2ccncc2)(c2cccc(-c3cc(Cl)ccc3Cl)c2)C2=NCCCN12 (stereo not shown) [Example 36, 8-(2′,5′-Dichlorobiphenyl-3-yl)-8-pyridin-4-yl-2,3,4,8-tetrahydroimidazo[1,5-a]pyrimidin-6-amine 0.25 acetate]	267
NC1=NC(c2ccncc2)(c2cccc(-c3ccc(F)c(Cl)c3)c2)C2=NCCCN12 (stereo not shown) [Example 37, 8-(3′-Chloro-4′-fluorobiphenyl-3-yl)-8-pyridin-4-yl-2,3,4,8-tetrahydroimidazo[1,5-a]pyrimidin-6-amine 0.25 acetate]	99
NC1=NC(c2ccoc2)(c2cccc(-c3cc(Cl)cc(Cl)c3)c2)C2=NCCCN12 (stereo not shown) [Example 43, 8-(3′,5′-Dichlorobiphenyl-3-yl)-8-(3-furyl)-2,3,4,8-tetrahydroimidazo[1,5-a]pyrimidin-6-amine acetate]	152
NC1=NC(c2ccoc2)(c2cccc(-c3cccnc3F)c2)C2=NCCCN12 (stereo not shown) [Example 44, 8-[3-(2-Fluoropyridin-3-yl)phenyl]-8-(3-furyl)-2,3,48-tetrahydroimidazo[1,5-a]pyrimidin-6-amine acetate]	656
NC1=NC(c2cccc(-c3cc(Cl)cc(Cl)c3)c2)(c2ccco2)C2=NCCCN12 (stereo not shown) [Example 50, 8-(3′,5′-Dichlorobiphenyl-3-yl)-8-(2-furyl)-2,3,4,8-tetrahydroimidazo[1,5-a]pyrimidin-6-amine acetate]	74
COc1cccc(-c2cccc(C3(c4ccco4)N=C(N)N4CCCN=C43)c2)c1 (stereo not shown) [Example 51, 8-(2-Furyl)-8-(3′-methoxybiphenyl-3-yl)-2,3,4,8-tetrahydroimidazo[1,5-a]pyrimidin-6-amine acetate]	472
Cc1nc(C2(c3cccc(-c4cc(Cl)cc(Cl)c4)c3)N=C(N)N3CCCN=C32)cs1 (stereo not shown) [Example 57, 8-(3′,5′-Dichlorobiphenyl-3-yl)-8-(2-methyl-1,3-thiazol-4-yl)-2,3,4,8-tetrahydroimidazo[1,5-a]pyrimidin-6-amine acetate]	3790
NC1=NC(c2ccsc2)(c2cccc(-c3cc(Cl)cc(Cl)c3)c2)C2=NCCCN12 (stereo not shown) [Example 63, 8-(3′,5′-Dichlorobiphenyl-3-yl)-8-(3-thienyl)-2,3,4,8-tetrahydroimidazo[1,5-a]pyrimidin-6-amine acetate]	68
NC1=NC(c2ccsc2)(c2cccc(-c3cccnc3F)c2)C2=NCCCN12 (stereo not shown) [Example 64, 8-[3-(2-Fluoropyridin-3-yl)phenyl]-8-(3-thienyl)-2,3,4,8-tetrahydroimidazo[1,5-a]pyrimidin-6-amine acetate]	247
NC1=NC(c2ccncc2)(c2cccc(-c3cccnc3F)c2)C2=NCC(F)(F)CN12 (stereo not shown) [Example 68, 3,3-Difluoro-8-[3-(2-fluoropyridin-3-yl)phenyl]-8-pyridin-4-yl-2,3,4,8-tetrahydroimidazo[1,5-a]pyrimidin-6-amine 0.75 acetate]	59
NC1=NC(c2ccncc2)(c2cccc(-c3cncc(F)c3)c2)C2=NCC(F)(F)CN12 (stereo not shown) [Example 71, 3,3-Difluoro-8-[3-(5-fluoropyridin-3-yl)phenyl]-8-pyridin-4-yl-2,3,4,8-tetrahydroimidazo[1,5-a]pyrimidin-6-amine acetate]	120
